{
  "source": "patent US7230139B2",
  "about": "“Diterpenoid compounds, compositions thereof and their use as anti-cancer or anti-fungal agents” (priority 2004, dated 2007)",
  "key": {"[1]": {"system": "C33A human cervical cancer cells", "experiment": "C33A cervical tumor xenograft in SCID mice", "assay_type": "in vivo, CB17 SCID/SCID female mice", "conditions": "for Tumor growth compared to vehicle: two-way ANOVA", "experimental": "The resultant mice are a model for a human having cervical cancer.\nThe C33A human cervical cancer cells were maintained in RPMI supplemented with 10% inactivated fetal bovine serum and 1% penicillin-streptomycin-L-Glutamine, under 5% CO2 at 37° C., and passaged twice a week. The cells were grown at a confluency lower than 70% and then collected with Trypsin (Bio-Whittaker, Md., USA). The cells were then centrifuged and washed twice using phosphate buffered saline solution (PBS) and resuspended in PBS at 2×10^6 cells per 100 μl. Viability was examined by staining with Trypan Blue and only flasks with cell viability of greater than 95% were used for in vivo studies.\n(§1) C33A cells were transplanted subcutaneously into the flank of female CB17 SCID/SCID mice. Each mouse was inoculated with a suspension of 2×10^6 tumor cells per 100 μL on day zero. The following six treatment groups of ten mice each were used: (a) a negative control group treated with intravenous (i.v.) injection of vehicle, (b) a negative control group treated with intraperitoneal (i.p.) injection of vehicle, (c) a positive control group treated with i.p. injection of Cisplatin, (d) a group treated with i.v. injection of a Compound 50, (e) a group treated with i.p. injection of Compound 50, and (f) a group treated with subcutaneous (s.c.) injection of Compound 50.\n(§2) Treatment started on day thirteen after C33A cells transplantation for Compound 50 treated groups and on day fourteen for Cisplatin treated group. Compound 50 was administered i.v., i.p., and s.c. once daily for five consecutive days at a dose of 10, 15 and 30 mg/kg, respectively. Compound 50 was prepared as a working solution of 1.5 mg/mL in a vehicle solution of 20% Cremaphor EL (Sigma, St. Louis, Mo., USA), 10% Ethanol and 5% Dextrose (Abbot Laboratories, QC, Canada). The negative control groups were treated with vehicle alone. The positive control group was treated once every 3 days for fifteen days at a dose of 3.5 mg/kg. Cisplatin was formulated in PBS on each day of the injection and was administered i.p.\nThe mice were weighed and the tumors measured on day 13 and every 2 to 3 days after treatment commenced. Observations continued for 36 days after initial tumor implantation. The changes in body weight and in the calculated tumor volume were plotted (FIGS. 4 and 5). Statistical analysis was performed using GraphPad Prism (GraphPad Software Inc., San Diego, Calif.). Two-way ANOVA was used to determine how the treatment affected tumor growth over time. Following the two-way ANOVA, post-tests were performed using the Benferroni method to determine the statistical difference between the mean tumor-size of the two groups being compared on every day that the tumors were measured. Four animals in the negative control injected i.v. with vehicle and two animals in the group treated i.v. with Compound 50 died during the observation period. Therefore, the data collected from these animals were excluded from all calculations and the total number of animals in the groups changed to six for the negative control injected i.v. with vehicle and eight for the group treated i.v. with Compound 50."}, "[2]": {"assay_type": "in vivo, CB17 SCID/SCID female mice", "experimental": "as §1, §2\nThe mice were weighed and the tumors measured on day 13 and every 2 to 3 days after treatment commenced. Observations continued for 36 days after initial tumor implantation. The changes in body weight and in the calculated tumor volume were plotted (FIGS. 4 and 5). Statistical analysis was performed using GraphPad Prism (GraphPad Software Inc., San Diego, Calif.). Two-way ANOVA was used to determine how the treatment affected tumor growth over time. Following the two-way ANOVA, post-tests were performed using the Benferroni method to determine the statistical difference between the mean tumor-size of the two groups being compared on every day that the tumors were measured. […]"}, "[3]": {"system": "Saccharomyces cerevisiae strain W303a", "experiment": "Yeast growth inhibition (OD600)", "assay_type": "cell-based", "conditions": "dilution series, YEP with glucose, galactose or glycerol, 30° C.; dose-dependent", "experimental": "Yeast cells were first cultured overnight in 10 mL of YEP glucose-containing medium at 30° C. The following day, 5 μL of the overnight culture (5–6×10^3 cells) was added to 100 μL of YEP media supplemented with 2% of one of the three carbon sources mentioned above in a 96-well microtitre plate. To these cultures a dilution series of Compound 50 was added. Compound 50 was prepared as a stock solution in 100% dimethyl sulfoxide (DMSO) at a concentration of 10 mM. Serial dilutions were prepared in distilled water. The final DMSO concentration in each well was 0.5%. Yeast cells were grown at 30° C. and cell growth was monitored by reading the OD600 (optical density at 600 nm) with a Tecan ULTRA plate reader (TECAN U.S. Inc., Research Triangle Park, N.C., USA). […] Accordingly, Compound 50, an illustrative Diterpenoid Compound, is useful for inhibiting the growth of a fungus or treating a fungal infection."}, "[4]": {"experiment": "Body weight of SW480 tumor-bearing mice", "assay_type": "in vivo, CB17 SCID/SCID female mice", "conditions": "i.v. once daily for five days; 10 mg/kg (50, 50a, 50b), 50 mg/kg (74a)", "experimental": "SW480 cells were transplanted subcutaneously into the flank of female CB 17 SCID/SCID mice. Each mouse was inoculated with a suspension of 1×10^6 tumor cells per 100 μL on day zero. The following five treatment groups of ten mice each were used: (a) a negative control group treated with intravenous (i.v.) injection of vehicle, (b) a group treated with i.v. injection of a Compound 50, (c) a group treated with i.v. injection of a Compound 50a, (d) a group treated with i.v. injection of Compound 50b, (e) a group treated with i.v. injection of Compound 74a.\nTreatment started on day twelve after SW480 cells transplantation and Compounds 50, 50a, 50b and 74a were administered i.v. once daily for five consecutive days at a dose of 10, 10, 10 and 50 mg/kg, respectively. Compound 50, 50a and 50b were prepared as a working solution of 1.5 mg/mL in a vehicle solution of 20% Cremaphor EL (Sigma, St. Louis, Miss., USA), and 10% Ethanol. Compound 74a was prepared as a working solution of 5 mg/mL in a vehicle solution of 5% Dextrose (Abbot Laboratories, QC, Canada). The negative control groups were treated with vehicle solution of 20% Cremaphor EL and 10% Ethanol alone.\nThe mice were weighed and the tumors measured on day 12 and every 2 to 3 days after treatment commenced. Observations continued for 23 days after initial tumor implantation. The changes in body weight and in the calculated tumor volume were plotted (FIGS. 9 and 10). Statistical analysis was performed using GraphPad Prism (GraphPad Software Inc., San Diego, Calif.). Two-way ANOVA was used to determine how the treatment affected tumor growth over time. Following the two-way ANOVA, post-tests were performed using the Benferroni method to determine the statistical difference between the mean tumor-size of the two groups being compared on every day that the tumors were measured."}},
  "note": "Like-named read-outs stand apart in the source and are kept apart here.",
  "data": [
    {"compound": "COc1ccc2c(c1)C1(C)C=CC(=O)C(C)(C)C1=C(O)C2=O", "note": "(racemic) [Compound 50]", "values": [
      {"measurement": "Tumor growth compared to vehicle", "setting": "[1]; i.p. 15 mg/kg once a day for five days", "value": "significant reduction (p<0.001)"},
      {"measurement": "Mean tumor-size compared to vehicle", "setting": "[1]; i.p., day 34 and day 36", "value": "significantly (p<0.05) smaller mean tumor-size"},
      {"measurement": "Tumor growth compared to vehicle", "setting": "[1]; i.v. 10 mg/kg once a day for five days", "value": "significant reduction (p<0.001)"},
      {"measurement": "Mean tumor-size compared to vehicle", "setting": "[1]; i.v. 10 mg/kg, day 36", "value": "significantly (p<0.05) smaller mean tumor-size"},
      {"measurement": "Tumor growth compared to vehicle", "setting": "[1]; s.c. 30 mg/kg once a day for five days", "value": "significant reduction (p<0.001)"},
      {"measurement": "Mean tumor-size compared to vehicle", "setting": "[1]; s.c., day 34 (p<0.01) and day 36 (p<0.001)", "value": "significantly smaller mean tumor-size"},
      {"measurement": "Change in body weight", "setting": "[2]; Compound 50 i.v., i.p. or s.c. 10, 15, 30 mg/kg once daily for five days", "value": "non-significant change in body weight"},
      {"measurement": "Animals died during the observation period", "setting": "[2]; i.v. group of ten mice, four died in the i.v. vehicle group", "value": "two animals"},
      {"measurement": "Growth of Saccharomyces cerevisiae", "setting": "[3]", "value": "significantly inhibited growth"},
      {"measurement": "Change in body weight", "setting": "[4]", "value": "non-significant change in body weight"}
    ]}
  ]
}
